Measured values as given in paper PMC3435245, “D-Alanylation of Lipoteichoic Acids Confers Resistance to Cationic Peptides in Group B Streptococcus by Increasing the Cell Wall Density” (PLoS Pathogens, 2012).
Converted amounts (≈) assume the structure as drawn. Where a SMILES comes first, the peptide text is derived from it. Bridges are numbered along the chain shown (N, C = ends). [ ]: non-standard residue; d: D form. The star is where a group is joined. Heptanoyl(6-Me) = CC(C)CCCCC(=O)*; X1 = CC[C@H](C)CCCCC(=O)*; Dab = NCC[C@H](N)C(=O)O

Experiments:
GBS ΔcpsD mutant = assay: MIC90 by dilution method, GBS ΔcpsD; type: cell-based, Streptococcus agalactiae; settings: Todd-Hewitt broth with 100 mM HEPES, 2×10^6 CFU, 96-well polypropylene microplate, overnight 37°C, OD600 nm; average of triplicate measurements
Protocol: (§1) The MICs of each antimicrobial peptide were tested in Todd-Hewitt broth (THB) buffered with 100 mM HEPES in 96-well polypropylene microplates (Costar, Cambridge, MA) by a dilution method. Bacteria (2×10^6 CFU) were added in triplicates to wells containing increasing concentrations of the antimicrobial peptides. Plates were incubated at 37°C with shaking overnight and then read (OD600 nm) using microplate reader (Labsystems Multiskanat) for bacterial growth. The MICs90 was considered to be the peptide concentration that inhibited 90% growth.

GBS ΔsrtA mutant = assay: MIC90 by dilution method, GBS ΔsrtA; type: cell-based, Streptococcus agalactiae; settings: Todd-Hewitt broth with 100 mM HEPES, 2×10^6 CFU, 96-well polypropylene microplate, overnight 37°C, OD600 nm; average of triplicate measurements
Protocol: as §1

GBS NEM316 WT strain = type: cell-based, Streptococcus agalactiae; settings: Todd-Hewitt broth with 100 mM HEPES, 2×10^6 CFU, 96-well polypropylene microplate, overnight 37°C, OD600 nm; average of triplicate measurements
Protocol: as §1

GBS Δlgt Δlsp mutant = assay: MIC90 by dilution method, GBS Δlgt Δlsp; type: cell-based, Streptococcus agalactiae; settings: Todd-Hewitt broth with 100 mM HEPES, 2×10^6 CFU, 96-well polypropylene microplate, overnight 37°C, OD600 nm; average of triplicate measurements
Protocol: as §1

GBS ΔdltA mutant = assay: MIC90 by dilution method, GBS ΔdltA; type: cell-based, Streptococcus agalactiae; settings: for MIC90, ΔdltA: Todd-Hewitt broth with 100 mM HEPES, 2×10^6 CFU, 96-well polypropylene microplate, overnight 37°C, OD600 nm, average of triplicate measurements; for more active against the dltA mutant compared to the WT (fold dilution): from MICs of Table 2, statement for all natural peptides; for fold more active on the dltA mutant compared to the WT: from MICs, WT versus dltA mutant
Protocol: as §1

GBS ΔmprF mutant = assay: MIC90 by dilution method, GBS ΔmprF; type: cell-based, Streptococcus agalactiae; settings: Todd-Hewitt broth with 100 mM HEPES, 2×10^6 CFU, 96-well polypropylene microplate, overnight 37°C, OD600 nm; average of triplicate measurements
Protocol: as §1

[1] = RP-HPLC hydrophobicity (% AcN at elution); type: physicochemical; settings: chromatographic, C4 reverse analytical column; eluted in 40 min, linear gradient of acetonitrile 30 to 70% v/v in water containing TFA (0.05% v/v)
Protocol: The procedure conducted as described previously. Briefly, peptides were synthesized using the Fmoc solid phase method on Rink amide resin ([…]). For fluorescent labeling of the N-terminus of the peptides, resin-bound peptides were treated with NBD or rhodamine dissolved in dimethyl formamide (DMF), washed thoroughly with DMF and then with methylene chloride, dried and then cleaved. […] The peptides were subjected to amino acid and mass spectrometry analysis to confirm their composition.

Compound	MIC90, ΔcpsD (GBS ΔcpsD mutant) [µM]	MIC90, ΔsrtA (GBS ΔsrtA mutant) [µM]	MIC90, WT (GBS NEM316 WT strain) [µM]	MIC90, Δlgt Δlsp (GBS Δlgt Δlsp mutant) [µM]	MIC90, ΔdltA (GBS ΔdltA mutant) [µM]	more active against the dltA mutant compared to the WT (fold dilution) (GBS ΔdltA mutant)	fold more active on the dltA mutant compared to the WT (GBS ΔdltA mutant) [fold]	MIC90, ΔmprF (GBS ΔmprF mutant) [µM]	Hydrophobicity (% AcN) [1] [% AcN]
CC(C)CCCCC(=O)N[C@@H](CCN)C(=O)N[C@H](C(=O)N[C@@H](CCN)C(=O)N[C@H]1CCNC(=O)[C@H]([C@@H](C)O)NC(=O)[C@H](CCN)NC(=O)[C@H](CCN)NC(=O)[C@H](CC(C)C)NC(=O)[C@@H](CC(C)C)NC(=O)[C@H](CCN)NC1=O)[C@@H](C)O ({Heptanoyl(6-Me)}-[Dab]T[Dab][Dab][Dab][dL]L[Dab][Dab]T; lactam 4-C; N-terminus assumed)	>221.6	>221.6	>221.6	>221.6	13.9 (≈ 16.1 µg/mL)	> 2	8	>221.6	–
CC(C)C[C@H](NC(=O)[C@H](CC(C)C)NC(=O)[C@H](CCCCN)NC(=O)[C@H](CC(C)C)NC(=O)[C@H](CC(C)C)NC(=O)[C@H](CC(C)C)NC(=O)[C@H](CCCCN)NC(=O)[C@H](CC(C)C)NC(=O)[C@H](CC(C)C)NC(=O)[C@H](CCCCN)NC(=O)[C@@H](N)CCCCN)C(=O)N[C@@H](CCCCN)C(N)=O [K5L7] (H-KKLLKLLLKLLK-NH2)	–	–	25 (≈ 36.3 µg/mL)	–	25 (≈ 36.3 µg/mL)	–	–	–	–
CC(C)C[C@H](NC(=O)[C@H](CC(C)C)NC(=O)[C@H](CCCCN)NC(=O)[C@H](CC(C)C)NC(=O)[C@H](CC(C)C)NC(=O)[C@H](CCCCN)NC(=O)[C@H](CCCCN)NC(=O)[C@H](CC(C)C)NC(=O)[C@H](CC(C)C)NC(=O)[C@H](CCCCN)NC(=O)[C@H](CCCCN)NC(=O)[C@H](CC(C)C)NC(=O)[C@H](CC(C)C)NC(=O)[C@H](CCCCN)NC(=O)[C@@H](N)CC(C)C)C(N)=O [K6L9] (H-LKLLKKLLKKLLKLL-NH2; N-terminus assumed)	35.5 (≈ 64.1 µg/mL)	35.5 (≈ 64.1 µg/mL)	35.5 (≈ 64.1 µg/mL)	17.7 (≈ 31.9 µg/mL)	17.7 (≈ 31.9 µg/mL)	–	–	17.7 (≈ 31.9 µg/mL)	67.2
CC(C)C[C@H](NC(=O)[C@H](CCCCN)NC(=O)[C@H](CCCCN)NC(=O)[C@H](CCCCN)NC(=O)[C@H](CC(C)C)NC(=O)[C@H](CCCCN)NC(=O)[C@H](CCCCN)NC(=O)[C@H](CC(C)C)NC(=O)[C@H](CC(C)C)NC(=O)[C@H](CCCCN)NC(=O)[C@H](CCCCN)NC(=O)[C@H](CC(C)C)NC(=O)[C@H](CCCCN)NC(=O)[C@H](CCCCN)NC(=O)[C@@H](N)CC(C)C)C(N)=O [K9L6] (H-LKKLKKLLKKLKKKL-NH2)	–	–	25 (≈ 46.2 µg/mL)	–	25 (≈ 46.2 µg/mL)	–	–	–	–
CC[C@H](C)[C@H](NC(=O)[C@H](CCCCN)NC(=O)[C@H](CCC(=O)O)NC(=O)[C@H](CCCCN)NC(=O)[C@H](CO)NC(=O)[C@H](CCCCN)NC(=O)[C@H](CCCNC(=N)N)NC(=O)[C@H](Cc1ccccc1)NC(=O)[C@H](Cc1ccccc1)NC(=O)[C@H](CC(=O)O)NC(=O)CNC(=O)[C@H](CC(C)C)NC(=O)[C@@H](N)CC(C)C)C(=O)NCC(=O)N[C@@H](CCCCN)C(=O)N[C@@H](CCC(=O)O)C(=O)N[C@@H](Cc1ccccc1)C(=O)N[C@@H](CCCCN)C(=O)N[C@@H](CCCNC(=N)N)C(=O)N[C@H](C(=O)N[C@H](C(=O)N[C@@H](CCC(N)=O)C(=O)N[C@@H](CCCNC(=N)N)C(=O)N[C@H](C(=O)N[C@@H](CCCCN)C(=O)N[C@@H](CC(=O)O)C(=O)N[C@@H](Cc1ccccc1)C(=O)N[C@@H](CC(C)C)C(=O)N[C@@H](CCCNC(=N)N)C(=O)N[C@@H](CC(N)=O)C(=O)N[C@@H](CC(C)C)C(=O)N[C@H](C(=O)N1CCC[C@H]1C(=O)N[C@@H](CCCNC(=N)N)C(=O)N[C@H](C(=O)N[C@@H](CCC(=O)O)C(=O)N[C@@H](CO)C(N)=O)[C@@H](C)O)C(C)C)[C@@H](C)CC)C(C)C)[C@@H](C)CC [LL-37]	>14.2	>14.2	>14.2	>14.2	3.6 (≈ 16.2 µg/mL)	–	–	>14.2	–
CC[C@H](C)[C@H](NC(=O)CN)C(=O)NCC(=O)N[C@@H](CCCCN)C(=O)N[C@@H](Cc1ccccc1)C(=O)N[C@@H](CC(C)C)C(=O)N[C@@H](Cc1c[nH]cn1)C(=O)N[C@@H](CO)C(=O)N[C@@H](C)C(=O)N[C@@H](CCCCN)C(=O)N[C@@H](CCCCN)C(=O)N[C@@H](Cc1ccccc1)C(=O)NCC(=O)N[C@@H](CCCCN)C(=O)N[C@@H](C)C(=O)N[C@@H](Cc1ccccc1)C(=O)N[C@H](C(=O)NCC(=O)N[C@@H](CCC(=O)O)C(=O)N[C@H](C(=O)N[C@@H](CCSC)C(=O)N[C@@H](CC(N)=O)C(=O)N[C@@H](CO)C(N)=O)[C@@H](C)CC)C(C)C [Magainin 2] (H-GIGKFLHSAKKFGKAFVGEIMNS-NH2)	>25.5	>25.5	>25.5	>25.5	6.4 (≈ 15.8 µg/mL)	–	–	>25.5	–
CC[C@H](C)CCCCC(=O)N[C@@H](CCN)C(=O)N[C@H](C(=O)N[C@@H](CCN)C(=O)N[C@H]1CCNC(=O)[C@H]([C@@H](C)O)NC(=O)[C@H](CCN)NC(=O)[C@H](CCN)NC(=O)[C@H](CC(C)C)NC(=O)[C@@H](Cc2ccccc2)NC(=O)[C@H](CCN)NC1=O)[C@@H](C)O [Polymyxin B] (X1-[Dab]T[Dab][Dab][Dab][dF]L[Dab][Dab]T; lactam 4-C (inferred); N-terminus assumed)	92.4 (≈ 111 µg/mL)	92.4 (≈ 111 µg/mL)	92.4 (≈ 111 µg/mL)	92.4 (≈ 111 µg/mL)	5.8 (≈ 6.98 µg/mL)	> 2	8	92.4 (≈ 111 µg/mL)	53.2
CH3(CH2)6CO-KKLLKLLLKLLK-NH2 [C8-K5L7, lipopeptide: K5L7 coupled to a short fatty acid]	–	–	3	–	3	–	–	–	61.4
